From patent US20260317546A1, “PRETARGETED BIMODAL IMAGING AGENTS” (KØBENHAVNS UNIVERSITET, priority 2023, published 2026)

Legend:
[1] = tested on: anti-TAG72 mAb CC49 modified with TCO-tags (CC49-TCO) in LS174T tumor xenografts
Protocol: This assay employs anti-TAG72 mAb CC49 modified with TCO-tags (CC49-TCO) and [111In]In-DOTA-PEG11-BisPy-Tz (FIG. 1) with well-established performance in pretargeted imaging of TAG72 expressing LS174 tumor xenografts.
LS174T xenograft-bearing mice are injected with CC49-TCO. After allowing for accumulation for 72 h, the tetrazine to be evaluated is injected via the tail vein, followed by [111In]In-DOTA-PEG11-BisPy-Tz after 1 h. in vivo performance of the tetrazine to be evaluated can therefore be correlated to tumor uptake of [111In]In-DOTA-PEG11-BisPy-Tz after 22 h. Increased in vivo performance is reflected by lower tumor uptake (see FIG. 1).
Further, a negative control (−C) and a positive control (+C) are included.

[2] = tested on: TCO-modified CC49 (CC49-TCO) targeting TAG-72 in human colorectal cancer LS174T xenograft tumors; assay: Pretargeted fluorescence imaging, ex vivo fluorescence measurements of selected organs; type: in vivo, Balb/c nude mice; settings: TCO-modified CC49 vs non-modified CC49 (control); compound 8 i.v. 72 h after antibody, 86.5 μg, 116.7 nmol; 1 h post injection; 488 nm excitation, 525/20 emission
Protocol: Pretargeted imaging of compound 8 of Example 1 was tested in vivo.
Pretargeted imaging of compound 8 of Example 1 was tested in vivo using the monoclonal antibody CC49 targeting TAG-72 in human colorectal cancer LS174T xenograft tumors. Tumors were established in 7-8 week old Balb/c nude mice and after 10 days, the animals were injected i.v. with either 50 μg (0.33 nmol) TCO-modified CC49 (CC49-TCO, ~3.5 TCO/mAb), or non-modified CC49 (control) (n=3 per group). After 72 hours, compound 8 (~100 equivalents per TCO, 86.5 μg, 116.7 nmol) in 100 μL of PBS (pH=7.4) was injected i.v.. One hour post injection, selected organs were harvested for ex vivo fluorescence measurements using a Amersham Typhoon 5 laser scanner platform (GE healthcare Europe) using a 488 nm excitation laser and 525/20 emission filter.

SMILES	blocking effect [1]	fluorescence in tumor (ex vivo) [2]
CC1=CC(C)=[N+]2C1=C(c1ccnc(-c3nnc(-c4ccc(CN(CC(=O)O)CC(=O)O)cn4)nn3)c1)c1c(C)cc(C)n1[B-]2(F)F [Compound 7, 2,2′-(((6-(6-(4-(5,5-difluoro-1,3,7,9-tetramethyl-5H-4λ4,5λ4-dipyrrolo[1,2-c:2′,1′-f][1,3,2]diazaborinin-10-yl)pyridin-2-yl)-1,2,4,5-tetrazin-3-yl)pyridin-3-yl)methyl)azanediyl)diacetic acid]	93%	
CC1=CC(C)=[N+]2C1=C(c1ccc(-c3nnc(-c4ccc(CN(CC(=O)O)CC(=O)O)cn4)nn3)nc1)c1c(C)cc(C)n1[B-]2(F)F [Compound 8, 2,2′-(((6-(6-(5-(5,5-difluoro-1,3,7,9-tetramethyl-5H-4λ4,5λ4-dipyrrolo[1,2-c:2′,1′-f][1,3,2]diazaborinin-10-yl)pyridin-2-yl)-1,2,4,5-tetrazin-3-yl)pyridin-3-yl)methyl)azanediyl)diacetic acid]	98%	higher fluorescence in tumor
